Measurements taken from patent EP0490410B1, “TXA2 Receptor and gene encoding the same” (SHIONOGI SEIYAKU KABUSHIKI KAISHA, priority 1990, dated 1992).

Columns and labels:
[1] = system: human TXA2 receptor encoded by HPL (SEQ ID NO: 1), expressed in Xenopus oocytes; experiment: Electrophysiological response (two-micropipette voltage clamp) of Xenopus oocytes injected with in vitro transcribed mRNA of HPL; format: cell-based; details: for response evoked (inward current): ligand added to the bath at 1 µM, oocytes 48 hours after mRNA injection
Method: The TXA2 receptor stimulation results in PI turnover and Ca^2+ mobilization. The present inventors, therefore, expressed the clone in Xenopus oocyte where agonist stimulation linked to PI turnover opens endogenous Ca^2+-dependent Cl^- channel. […] The mRNA synthesized in vitro from the 2.0 kb BamHI subclone of HPL was injected into Xenopus oocytes and electrophysiological responses were measured after 48 hours. A TXA2 agonist, STA2, and other PGs dissolved in ethanol at 100 µM were added to the bath at 1 µM concentration, and responses of oocytes were recorded by the two-micropipette voltage clamp method as described in Masu, Y. et al., Nature 329, 836-838 (1987).

[2] = target: T1, human TXA2 receptor encoded by placenta cDNA clone HPL (SEQ ID NO: 1), expressed in COS-7 cells (Homo sapiens, UniProt P21731); experiment: Competition for [3H]S-145 binding to membranes of transfected COS-7 cells; details: 1.25 nM [^3H]S-145 and various concentrations of ligands
T1 construct: expressed in transfected cells; host or cells: COS-7 cells (CDM8 vector), membranes
T1 sequence (P21731 1-343): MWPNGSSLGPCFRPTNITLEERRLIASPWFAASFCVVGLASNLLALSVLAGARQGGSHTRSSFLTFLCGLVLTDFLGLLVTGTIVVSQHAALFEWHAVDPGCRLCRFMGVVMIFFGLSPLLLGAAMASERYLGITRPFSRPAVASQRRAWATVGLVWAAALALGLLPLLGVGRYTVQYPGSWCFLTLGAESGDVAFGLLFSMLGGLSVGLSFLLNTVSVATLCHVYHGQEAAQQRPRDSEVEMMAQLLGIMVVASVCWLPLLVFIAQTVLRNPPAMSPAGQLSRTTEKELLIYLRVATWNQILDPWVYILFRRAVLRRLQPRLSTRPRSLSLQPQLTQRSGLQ
Method: To establish that HPL encodes the TXA2 receptor, the present inventors subcloned a 2.0 kb fragment of HPL into an eukaryotic expression vector, CDM8 (Seed, B., Nature 329, 840-842 (1987)), and transfected the plasmid into COS-7 cells. […] Specificity of this binding was analysed with several TXA2 analogues as well as various prostanoids.
HPL was digested with BamHI to remove most of the 5'-untranslated region, and its 2.0 kb fragment was inserted between the HindIII-XbaI site of eukaryotic expression vector CDM8 (Seed, B., Nature […], 840-842 (1987)). A modified DEAE-dextran method (Ausbel, F. M. et al, Current Protocols in Molecular Biology. 9.2.5 (Wiley, New York, 1989)) was used for the transfection of COS-7 cells. At 60 h after the transfection, cells were collected and membranes were prepared by homogenizing the cells according to the method of Ausbel, F. M. et al., as described above in the presence of 1 mM benzamidine and 0.3 mM PMSF.

With CCCCC[C@H](O)/C=C/[C@H]1[C@H](O)CC(=O)[C@@H]1C/C=C\CCCC(=O)O [E2] as the compound, how does the “response evoked (inward current)” value [1] read?
Its value is “did not evoke response”.

With CCCCCC(O)C=CC1C(O)CC2OC(=CCCCC(=O)O)CC21 (stereo not drawn) [I2] as the compound, how does the “response evoked (inward current)” value [1] read?
Its value is “did not evoke response”.

How did the “competition for the [^3H]S-145 binding” value [2] turn out when CC1(C)[C@H]2C[C@H](NC(=O)[C@H](O)C3CCCC3)[C@@H](C/C=C\CCCC(=O)O)[C@@H]1C2 [ONO-3708] was run?
The value was “competed for the [^3H]S-145 binding”.

With CCCCC[C@H](O)/C=C/[C@H]1[C@H](O)CC(=O)[C@@H]1CCCCCCC(=O)O [PGE1] as the compound, how does the “response evoked (inward current)” value [1] read?
Its value is “did not evoke response”.

For CCCCC[C@H](O)/C=C/[C@@H]1[C@@H](C/C=C\CCCC(=O)O)[C@@H](O)C[C@H]1O [PGF2 α], which “response evoked (inward current)” value [1] is on record?
The value was “did not evoke response”.

With O=C(O)CCCC=CCC1C2CCC(C2)C1NS(=O)(=O)c1ccccc1 (stereo not drawn) [S-145] as the compound, how does the “competition for the [^3H]S-145 binding” value [2] read?
Its value is “competed for the [^3H]S-145 binding”.

CCCCCC(O)C=CC1CC2CC(S2)C1CC=CCCCC(=O)O (stereo not drawn) [STA2] was tested. Which “competition for the [^3H]S-145 binding” value [2] did it give?
The value was “competed for the [^3H]S-145 binding”.

What about the “response evoked (inward current)” value [1] of the same compound?
Its value is “evoked a fast inward current of a few hundred nA followed by a slow phase of current of low amplitude”.

What about the “concentration as low as which the response was seen” value ([1]; oocytes injected with mRNA of HPL) of the same compound?
The value was 1 nM.

How did the “competition for the [^3H]S-145 binding” value [2] turn out when CCCCC[C@H](O)/C=C/[C@H]1OC(O)C[C@H](O)[C@@H]1C/C=C\CCCC(=O)O (stereo partly drawn) [TXB2] was run?
Its value is “at least two orders of magnitude less active in the competition”.

And the “response evoked (inward current)” value [1]?
The value was “did not evoke response”.

Which “response evoked (inward current)” value [1] does the source give for PGD2 here?
Its value is “did not evoke response”.
